The record followed here is patent US6933305B2, “Amide compounds and use thereof” (Mitsubishi Pharma Corporation, priority 2000, dated 2005).

Structures can show the parent of a compound that is named as a salt. Bounds are passed on as bounds.

The target of the first series is T1, human ROCK-1 kinase domain (1 to 477 amino acids) (Homo sapiens, UniProt Q13464).
T1 construct: a vector that expresses the kinase domain (1 to 477 amino acids) of the ROCK-1 protein; His-Tag (6xHis); made in house; host or cells: Sf9 insect cells, recombinant baculovirus (pBAC-1 vector)
T1 sequence (Q13464 1-477): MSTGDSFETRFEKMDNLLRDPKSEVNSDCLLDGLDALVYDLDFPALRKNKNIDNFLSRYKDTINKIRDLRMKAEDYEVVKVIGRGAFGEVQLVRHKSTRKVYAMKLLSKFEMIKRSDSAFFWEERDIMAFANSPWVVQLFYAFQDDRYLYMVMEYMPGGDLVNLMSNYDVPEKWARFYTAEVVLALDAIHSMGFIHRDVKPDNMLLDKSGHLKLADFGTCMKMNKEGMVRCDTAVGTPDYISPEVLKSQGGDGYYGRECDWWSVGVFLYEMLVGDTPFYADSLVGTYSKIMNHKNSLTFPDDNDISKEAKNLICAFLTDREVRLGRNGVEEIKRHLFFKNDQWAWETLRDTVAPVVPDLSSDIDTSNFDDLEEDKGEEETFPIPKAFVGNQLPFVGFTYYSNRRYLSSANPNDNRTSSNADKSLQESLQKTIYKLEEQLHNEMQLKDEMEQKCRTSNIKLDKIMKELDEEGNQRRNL
The experiment in a line: Rho kinase inhibitory activity (inhibitory activity on human Rho kinase). It counts as biochemical. To be noted: recombinant His-tagged human ROCK-1 kinase domain, histone substrate, 1 μM [32P]ATP, room temperature 20 min. The method, then:
Rho Kinase Inhibitory Activity (Inhibitory Activity on Human Rho Kinase)
Human Rho kinase was prepared as follows. Using the following primer prepared based on the human ROCK-1 cDNA sequence reported by Ishizaki et al. (T. Ishizaki et al. EMBO J. 15, 1885-1893, 1996) and Human Placenta cDNA (Clontech, Lot. 7030086) as a template, PCR amplification was carried out.
The amplified DNA fragment was digested with Sac I and Not I, and inserted into the Sac I/Not I site of a commercially available vector for insect cell expression, pBAC-1 (Novagenn), whereby a […] human ROCK-1 protein expression vector was prepared. […]
A reaction mixture (total amount 100 μl) containing 20 mM (N-morpholino)propanesulfone acid-NaOH (pH 7.2), 0.1 mg/ml bovine serum albumin, 5 mM dithiothreitol, 10 mM β-glycerophosphoric acid, 50 μM sodium vanadate, 10 mM magnesium chloride, 1 μM [^32P] […] Then, the radioactivity incorporated into the substrate was measured using a liquid scintillation counter. […]
As a reminder, the IC50 is the concentration needed to halve the response being measured. For `N[C@H]1CCSc2cc(C(=O)Nc3ccncc3)ccc21` [Example 10, (S)-4-amino-N-(4-pyridyl)thiochromane-7-carboxamide], the IC50 worked out at 13 nM.

System in the next series: not given
Assay: not given
Settings: not given
By melting point is commonly meant the temperature of the solid-liquid transition. Take `NC1CCS(=O)(=O)c2cc(C(=O)Nc3ccncc3)ccc21` (stereo not drawn) (as salt: HCl) (hydrate or solvate) [Example 1, 4-amino-N-(4-pyridyl)thiochromane-7-carboxamide 1,1-dioxide]: the melting point is > 230 °C (dec.).
The same measure, in the same setting: under `N[C@@H]1CCS(=O)(=O)c2cc(C(=O)Nc3ccncc3)ccc21` (as salt: HCl) (hydrate or solvate) [Example 6, (R)-4-amino-N-(4-pyridyl)thiochromane-7-carboxamide 1,1-dioxide] stands > 275 °C (dec.); under `N[C@@H]1CCS(=O)(=O)c2cc(C(=O)Nc3ccncc3)ccc21` (as salt: HCl) (hydrate or solvate) [Example 7, (R)-4-amino-N-(4-pyridyl)thiochromane-7-carboxamide 1,1-dioxide], > 250 °C (dec.); under `N[C@H]1CCSc2cc(C(=O)Nc3ccncc3)ccc21` (as salt: HCl) (hydrate or solvate) [Example 10, (S)-4-amino-N-(4-pyridyl)thiochromane-7-carboxamide], > 260 °C (dec.).
Regarding `NC1CCSc2cc(C(=O)Nc3ccncc3)ccc21` (stereo not drawn) (as salt: HCl) [Example 2, 4-amino-N-(4-pyridyl)thiochromane-7-carboxamide], the melting point is > 280 °C (dec.).
